With `CC(C)Cn1c(=O)n(C)c(=O)c2c(SCC(C)O)c(Cc3cccc4ccccc34)sc21` (racemic) [Example 15, (±) 5-[(2-Hydroxypropyl)thio]-3-methyl-1-(2-methylpropyl)-6-(1-naphthalenylmethyl)thieno[2,3-d]pyrimidine-2,4(1H,3H)-dione], the melting point (usually the temperature of the solid-liquid transition) lay within 126 to 128 °C.

Turning to `CC(C)Cn1c(=O)n(C)c(=O)c2c(SCCCN=[N+]=[N-])c(Cc3cccc4ccccc34)sc21` [Example 39, 5-[(3-Azidopropyl)thio]-3-methyl-1-(2-methylpropyl)-6-(1-naphthalenylmethyl)thieno[2,3-d]pyrimidine-2,4(1H,3H)-dione], the melting point is 94 to 96 °C.

In turn, `CC(C)Cn1c(=O)n(C)c(=O)c2c(NC(=O)NCCO)c(Cc3cccc4ccccc34)sc21` [Example 48] gave a melting point of 227 to 228 °C.

As to `CC(C)Cn1c(=O)n(C)c(=O)c2cc(C(O)c3cccc(F)c3)sc21` (stereo not shown) [Example 51, 6-[(1-Hydroxy-1-(3-fluorophenyl))methyl]-3-methyl-1l-(2-methylpropyl)thieno[2,3-d]pyrimiidine-2,4-(1H, 3H)-dione], the melting point was 54 °C.

Compound `CC(C)Cn1c(=O)n(C)c(=O)c2c(SCCC(C)O)c(Cc3cccc4ccccc34)sc21` (racemic) [Example 85, (±)-5-[(3-Hydroxybutyl)thio]-3-methyl-1-(2-methylpropyl)-6-(1-naphthalenylmethyl)thieno2,3-d]pyrimidine-2,4(1H,3H)-dione] gave a melting point of 162 to 163 °C.

`CC(C)Cn1c(=O)n(C)c(=O)c2cc(Cc3cccc4ccccc34)sc21` [Example 4] registered a melting point of 137 to 138 °C.

Compound `CC(C)Cn1c(=O)n(C)c(=O)c2c(C(=O)NCC(=O)O)c(Cc3cccc4ccccc34)sc21` [Example 21, 2-{[1,2,3,4-Tetrahydro-3-methyl-1-(2-methylpropyl)-6-(1-naphthalenylmethyl)-2,4-dioxothieno[2,3-d]pyrimidin-5-yl]carboxamido}acetic acid] yielded a melting point of 218 to 219 °C.

In turn, `CC(C)Cn1c(=O)n(C)c(=O)c2c(NC(=O)OCCO)c(Cc3cccc4ccccc34)sc21` [Example 49, 2-Hydroxyethyl [1,2,3,4-tetrahydro-3-methyl-1-(2-methylpropyl)-6-(1-naphthalenylmethyl)-2,4-dioxothieno[2,3-d]pyrimidin-5-yl]carbamate] displayed a melting point of 201 to 202 °C.

`CC(C)Cn1c(=O)n(C)c(=O)c2c(SCCCC(=O)O)c(Cc3cccc4ccccc34)sc21` [Example 8, 4-[(1,2,3,4-Tetrahydro-3-methyl-1-(2-methylpropyl)-6-(1-naphthalenylmethyl)-2,4-dioxothieno[2,3-d]pyrimidin-5-yl)thio]butanoic acid] showed a melting point of 172 to 173 °C.

On to `CC(C)Cn1c(=O)n(C)c(=O)c2cc(C3OC(=N)c4ccccc43)sc21` (stereo not shown) [Example 81, 6-(3-Imino-1,3-dihydro-benzo[c]furan-1-yl)-3-methyl-1-(2-methylpropyl)thieno[2,3-d]pyrimidine-2,4(1H, 3H)-dione], for which the melting point turned out to be 152 °C.

Regarding `COC(=O)CCCS(=O)(=O)c1c(Cc2cccc3ccccc23)sc2c1c(=O)n(C)c(=O)n2CC(C)C` [Example 10, Methyl 4-[(1,2,3,4-tetrahydro-3-methyl-1-(2-methylpropyl)-6-(1-naphthalenylmethyl)-2,4-dioxothieno[2,3-d]pyrimidin-5-yl)sulfonyl]butanoate], the melting point was in the range of 122 to 124 °C.

As to `CC(C)Cn1c(=O)n(C)c(=O)c2cc(Cc3ccccc3C(N)=O)sc21` [Example 82, 2-[(1,2,3,4-tetrahydro-3-methyl-1-(2-methylpropyl)-2,4-dioxothieno[2,3-d]pyrimidin-6-yl)methyl]benzamido], the melting point turned out to be 183 °C.

In the case of `CC(C)Cn1c(=O)n(C)c(=O)c2cc(Cc3cccc(F)c3)sc21` [Example 52, 6-[(3-Fluorophenyl)methyl]-3-methyl-1-(2-methylpropyl)thieno[2,3-d]pyrimidine-2,4-(1H, 3H)-dione], the melting point was in the range of 76 to 78 °C.

For the origin of these results see patent US6342502B1, “Thieno[2,3-d]pyrimidine diones and their use in the treatment of reversible obstructive airways diseases” (AstraZeneca AB, priority 1997, dated 2002).
